Experimental data reported in patent US7417068B2, “EP4 receptor antagonists” (Asterand UK Limited, priority 2003, dated 2008).

Columns and labels:
human EP2 receptor = molecular target: T1, human EP2 receptor (Homo sapiens, UniProt P43116); assay: Binding ability to human EP receptors ([3H]PGE2 displacement), EP2; conditions: membranes from cells stably transfected with human EP2 receptor; 3 nM [3H]PGE2; Cheng-Prusoff from IC50; read-out: pKi EP2 (converted)
T1 construct: expressed in transfected cells
T1 sequence (P43116 whole entry): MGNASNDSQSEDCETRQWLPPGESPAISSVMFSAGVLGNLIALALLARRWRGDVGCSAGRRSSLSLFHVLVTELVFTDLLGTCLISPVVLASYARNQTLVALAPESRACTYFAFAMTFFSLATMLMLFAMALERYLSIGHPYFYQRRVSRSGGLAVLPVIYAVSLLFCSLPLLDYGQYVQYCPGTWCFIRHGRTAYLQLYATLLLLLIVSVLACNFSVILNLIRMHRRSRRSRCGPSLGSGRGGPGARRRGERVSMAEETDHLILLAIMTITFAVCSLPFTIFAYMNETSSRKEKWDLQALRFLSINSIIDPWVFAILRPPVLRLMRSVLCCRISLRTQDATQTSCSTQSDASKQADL
Protocol: (§1) Membranes were prepared from cells stably transfected with human EP receptor cDNA. In brief, cells were cultured to confluency, scraped from culture flasks, and centrifuged (800 g, 8 minutes, 4° C.). Cells were twice washed in ice cold homogenisation buffer containing 10 mMTris-HCl, 1 mM EDTA.2Na, 250 mM sucrose, 1 mM PMSF, 0.3 mM indomethacin, pH 7.4, homogenised and re-centrifuged as before. The supernatant was stored on ice and pellets re-homogenised and re-spun. Supernatants were pooled and centrifuged at 40000 g, 10 minutes, 4° C. Resultant membrane pellets were stored at −80° C. until use.
(§2) For assay, membranes expressing human EP4, EP3, EP2 or EP1 receptors were incubated in Millipore (MHVBN45) plates containing assay buffer, radiolabelled [^3H]PGE2 and 0.1 to 10 000 nM concentrations of compounds. Incubations were performed at suitable temperatures and for suitable times to allow equilibrium to be reached. Non-specific binding was determined in the presence of 10 uM PGE2. Bound and free radiolabel was separated by vacuum manifold filtration using appropriate wash buffers, and bound radiolabel was determined by scintillation counting. Constituents of each of the buffers are included in table 1 below.
(§3) The affinity or pKi of each compound for each receptor was calculated from the concentration causing 50% radioligand displacement (IC50) using the Cheng-Prusoff equation: […]

human EP4 receptor = molecular target: T2, human EP4 receptor (Homo sapiens, UniProt P35408); assay: Binding ability to human EP receptors ([3H]PGE2 displacement), EP4; conditions: membranes from cells stably transfected with human EP4 receptor; 1 nM [3H]PGE2; Cheng-Prusoff from IC50; read-out: pKi EP4 (converted)
T2 construct: expressed in transfected cells
T2 sequence (P35408 whole entry): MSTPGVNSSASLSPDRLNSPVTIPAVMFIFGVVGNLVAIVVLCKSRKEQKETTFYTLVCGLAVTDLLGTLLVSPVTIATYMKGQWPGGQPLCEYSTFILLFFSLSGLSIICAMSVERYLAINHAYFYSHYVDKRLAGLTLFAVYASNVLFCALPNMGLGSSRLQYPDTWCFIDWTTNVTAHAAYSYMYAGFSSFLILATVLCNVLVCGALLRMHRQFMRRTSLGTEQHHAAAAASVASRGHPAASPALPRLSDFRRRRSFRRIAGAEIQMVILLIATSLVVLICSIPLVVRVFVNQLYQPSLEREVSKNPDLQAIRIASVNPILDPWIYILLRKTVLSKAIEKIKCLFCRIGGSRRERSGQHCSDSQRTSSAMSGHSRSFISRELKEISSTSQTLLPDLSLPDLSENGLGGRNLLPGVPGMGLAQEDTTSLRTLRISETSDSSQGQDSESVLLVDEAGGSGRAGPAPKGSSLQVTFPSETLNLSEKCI
Protocol: as §1, §2, §3

human EP3 receptor = molecular target: T3, human EP3 receptor (Homo sapiens, UniProt P43115); assay: Binding ability to human EP receptors ([3H]PGE2 displacement), EP3; conditions: membranes from cells stably transfected with human EP3 receptor; 2.5 nM [3H]PGE2; Cheng-Prusoff from IC50; read-out: pKi EP3 (converted)
T3 construct: expressed in transfected cells
T3 sequence (P43115 1-390): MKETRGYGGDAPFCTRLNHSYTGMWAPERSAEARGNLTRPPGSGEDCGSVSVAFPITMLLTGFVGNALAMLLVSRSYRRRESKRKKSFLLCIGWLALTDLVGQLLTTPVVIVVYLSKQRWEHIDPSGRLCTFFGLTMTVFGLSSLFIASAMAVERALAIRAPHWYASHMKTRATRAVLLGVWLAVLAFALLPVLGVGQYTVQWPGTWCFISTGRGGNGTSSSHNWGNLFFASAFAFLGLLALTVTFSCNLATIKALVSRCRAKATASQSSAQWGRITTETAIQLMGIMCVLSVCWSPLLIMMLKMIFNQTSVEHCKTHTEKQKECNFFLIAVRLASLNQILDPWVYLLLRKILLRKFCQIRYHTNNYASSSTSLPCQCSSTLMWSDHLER
Protocol: as §1, §2, §3

Structure (SMILES)	Ki (human EP2 receptor) [µM]	Ki (human EP4 receptor) [µM]	Ki (human EP3 receptor) [µM]
COc1ccc(-c2cc(C(=O)Nc3ccc(CC(=O)O)cc3)c(C)o2)cc1 [Compound 6, (4-{[5-(4-Methoxy-phenyl)-2-methyl-furan-3-carbonyl]-amino}-phenyl)-acetic acid]	> 10	< 1	> 10
O=C(O)Cc1ccc(NC(=O)c2coc(-c3ccccc3)c2)cc1 [Compound 10, {4-[(5-Phenyl-furan-3-carbonyl)-amino]-phenyl}-acetic acid]	> 3.16	< 1	> 10
Cc1oc(-c2ccccc2)cc1C(=O)Nc1ccc(CC(=O)NS(=O)(=O)c2ccccc2)cc1 [Compound 21, 2-Methyl-5-phenyl-furan-3-carboxylic acid [4-(2-benzenesulfonylamino-2-oxo-ethyl)-phenyl]-amide]	> 1	< 0.1	> 10
COc1ccc(-c2cc(C(=O)Nc3ccc(CC(=O)NS(=O)(=O)c4ccccc4)cc3)c(C(F)(F)F)o2)cc1 [Compound 22, 5-(4-Methoxy-phenyl)-2-trifluoromethyl-furan-3-carboxylic acid [4-(2-benzenesulfonylamino-2-oxo-ethyl)-phenyl]-amide]	> 1	< 1	> 10
COc1ccc(-c2cc(C(=O)Nc3ccc(CC(=O)NS(=O)(=O)c4ccccc4)cc3)c(C)o2)cc1 [Compound 23, 5-(4-Methoxy-phenyl)-2-methyl-furan-3-carboxylic acid [4-(2-benzenesulfonylamino-2-oxo-ethyl)-phenyl]-amide]	> 1	< 0.1	> 10
Cc1ccccc1S(=O)(=O)NC(=O)Cc1ccc(NC(=O)c2coc(-c3ccccc3)c2)cc1 [Compound 24, 5-Phenyl-furan-3-carboxylic acid {4-[2-oxo-2-(toluene-2-sulfonylamino)-ethyl]-phenyl}-amide]	> 0.1	< 1	> 10
Cc1oc(-c2ccc(OC(F)F)cc2)cc1C(=O)Nc1ccc(CC(=O)NS(=O)(=O)c2ccccc2)cc1 [Compound 25, 5-(4-Difluoromethoxy-phenyl)-2-methyl-furan-3-carboxylic acid [4-(2-benzenesulfonylamino-2-oxo-ethyl)-phenyl]-amide]	> 1	< 0.1	> 10
Cc1ccccc1S(=O)(=O)NC(=O)Cc1ccc(NC(=O)c2cc(-c3ccc(OC(F)F)cc3)oc2C)cc1 [Compound 26, 5-(4-Difluoromethoxy-phenyl)-2-methyl-furan-3-carboxylic acid {4-[2-oxo-2-(toluene-2-sulfonylamino)-ethyl]-phenyl}-amide]	> 0.316	< 0.1	> 10
CCCS(=O)(=O)NC(=O)Cc1ccc(NC(=O)c2cc(-c3ccc(OC(F)F)cc3)oc2C)cc1 [Compound 27, 5-(4-Difluoromethoxy-phenyl)-2-methyl-furan-3-carboxylic acid {4-[2-oxo-2-(propane-1-sulfonylamino)-ethyl]-phenyl}-amide]	> 10	< 1	> 10
Cc1oc(-c2ccc(OC(F)F)cc2)cc1C(=O)Nc1ccc(CC(=O)NS(=O)(=O)c2cccs2)cc1 [Compound 29, 5-(4-Difluoromethoxy-phenyl)-2-methyl-furan-3-carboxylic acid {4-[2-oxo-2-(thiophene-2-sulfonylamino)-ethyl]-phenyl}-amide]	> 3.16	< 0.1	> 10
Cc1ccc(S(=O)(=O)NC(=O)Cc2ccc(NC(=O)c3cc(-c4ccc(OC(F)F)cc4)oc3C)cc2)nc1 [Compound 30, 5-(4-Difluoromethoxy-phenyl)-2-methyl-furan-3-carboxylic acid {4-[2-(5-methyl-pyridine-2-sulfonylamino)-2-oxo-ethyl]-phenyl}-amide]	> 1	< 0.1	> 10
Cc1oc(-c2ccc(OC(F)F)cc2)cc1C(=O)Nc1ccc(CC(=O)NS(=O)(=O)c2ccccc2F)cc1 [Compound 36, 5-(4-Difluoromethoxy-phenyl)-2-methyl-furan-3-carboxylic acid {4-[2-(2-fluoro-benzenesulfonylamino)-2-oxo-ethyl]-phenyl}-amide]	> 1	< 0.1	> 10

The next lines start with the values.

Ki (human EP2 receptor) [µM]	Ki (human EP4 receptor) [µM]	Ki (human EP3 receptor) [µM]	Structure (SMILES)
> 10	< 10	> 10	COc1ccc(-c2cc(C(=O)Nc3ccc(CC(=O)O)cc3)c(C(F)(F)F)o2)cc1 [Compound 4, (4-{[5-(4-Methoxy-phenyl)-2-trifluoromethyl-furan-3-carbonyl]-amino}-phenyl)-acetic acid]
> 10	< 1	> 10	O=C(O)Cc1ccc(NC(=O)c2coc(-c3ccc(OC(F)F)cc3)c2)cc1 [Compound 13, (4-{[5-(4-Difluoromethoxy-phenyl)-furan-3-carbonyl]-amino}-phenyl)-acetic acid]
> 3.16	< 1	> 10	Cc1oc(-c2ccc(OC(F)F)cc2)cc1C(=O)Nc1ccc(CC(=O)O)cc1 [Compound 18, (4-{[5-(4-Difluoromethoxy-phenyl)-2-methyl-furan-3-carbonyl]-amino}-phenyl)-acetic acid]
> 10	< 10	> 10	Cc1cc(C(=O)NCc2ccc(C(=O)O)cc2)c(-c2ccccc2)o1 [Compound 20, 4-{[(5-Methyl-2-phenyl-furan-3-carbonyl)-amino]-methyl}-benzoic acid]
> 10	< 1	> 10	Cc1noc(C)c1S(=O)(=O)NC(=O)Cc1ccc(NC(=O)c2cc(-c3ccc(OC(F)F)cc3)oc2C)cc1 [Compound 28, 5-(4-Difluoromethoxy-phenyl)-2-methyl-furan-3-carboxylic acid {4-[2-(3,5-dimethyl-isoxazole-4-sulfonylamino)-2-oxo-ethyl]-phenyl}-amide]
> 1	< 0.1	> 10	Cc1oc(-c2ccc(OC(F)F)cc2)cc1C(=O)Nc1ccc(CC(=O)NS(=O)(=O)Cc2ccccc2)cc1 [Compound 31, 5-(4-Difluoromethoxy-phenyl)-2-methyl-furan-3-carboxylic acid [4-(2-oxo-2-phenylmethanesulfonylamino-ethyl)-phenyl]-amide]
> 3.16	< 0.1	> 3.16	Cc1oc(-c2ccc(OC(F)F)cc2)cc1C(=O)Nc1ccc(CC(=O)NS(=O)(=O)c2ccccc2C(F)(F)F)cc1 [Compound 32, 5-(4-Difluoromethoxy-phenyl)-2-methyl-furan-3-carboxylic acid {4-[2-oxo-2-(2-trifluoromethyl-benzenesulfonylamino)-ethyl]-phenyl}-amide]
> 3.16	< 0.1	> 10	Cc1oc(-c2ccc(OC(F)F)cc2)cc1C(=O)Nc1ccc(CC(=O)NS(=O)(=O)c2ccc(O)cc2)cc1 [Compound 35, 5-(4-Difluoromethoxy-phenyl)-2-methyl-furan-3-carboxylic acid {4-[2-(4-hydroxy-benzenesulfonylamino)-2-oxo-ethyl]-phenyl}-amide]
